Key:
ISC-enriched organoids [1] = assay: Primary screen, 384-well 2.5-D organoid differentiation (ENR+CD, 6 days): carbachol-induced lysozyme secretion (LYZ.S); format: cell-based, murine; conditions: for Dose.FC.LYZ.S: primary screen, ENR+CD 6 days, FC vs plate median
Description: (§1) High-throughput screening.

ISC-enriched organoids [2] = assay: Primary screen, 384-well 2.5-D organoid differentiation (ENR+CD, 6 days, Target Selective Inhibitor Library, vs whole-plate median): ATP (CellTiter-Glo 3D, CTG); conditions: for Dose.FC.CTG / Z.CTG: primary screen; for Dose.FC.CTG: ENR+CD 6 days, FC vs plate median; for Z.CTG: standard z score of FC
ISC-enriched organoids [3] = assay: Primary screen, 384-well 2.5-D organoid differentiation (ENR+CD, 6 days): basal lysozyme secretion (LYZ.NS); format: cell-based, murine; conditions: for Dose.FC.LYZ.NS / Z.LYZ.NS: primary screen; for Dose.FC.LYZ.NS: ENR+CD 6 days, FC vs plate median; for Z.LYZ.NS: standard z score of FC
Description: as §1

[4] = dose 0.08 uM (1st of 4 lines per treatment; dose not printed in this part)
[5] = dose 0.40 uM (2nd of 4 lines per treatment; dose not printed in this part)
[6] = dose 2.00 uM (3rd of 4 lines per treatment; dose not printed in this part)
[7] = dose 10.00 uM (4th of 4 lines per treatment; dose not printed in this part)

SMILES	SSMD.LYZ.S_Rep (strictly standardized mean difference) (ISC-enriched organoids [1]; [4])	Z.LYZ.S (standard z score) (ISC-enriched organoids [1]; [4])	SSMD.LYZ.S_Rep (strictly standardized mean difference) (ISC-enriched organoids [1]; [5])	Z.LYZ.S (standard z score) (ISC-enriched organoids [1]; [5])	SSMD.LYZ.S_Rep (strictly standardized mean difference) (ISC-enriched organoids [1]; [6])	Z.LYZ.S (standard z score) (ISC-enriched organoids [1]; [6])	SSMD.LYZ.S_Rep (strictly standardized mean difference) (ISC-enriched organoids [1]; [7])	Z.LYZ.S (standard z score) (ISC-enriched organoids [1]; [7])	Dose.FC.LYZ.S (ISC-enriched organoids [1]; dose 0.08 uM) [log 2 fold change]	Dose.FC.LYZ.S (ISC-enriched organoids [1]; dose 0.40 uM) [log 2 fold change]	Dose.FC.LYZ.S (ISC-enriched organoids [1]; dose 2.00 uM) [log 2 fold change]	Dose.FC.LYZ.S (ISC-enriched organoids [1]; dose 10.00 uM) [log 2 fold change]	SSMD.CTG_Rep (strictly standardized mean difference) (ISC-enriched organoids [2]; [4])	SSMD.CTG_Rep (strictly standardized mean difference) (ISC-enriched organoids [2]; [5])	SSMD.CTG_Rep (strictly standardized mean difference) (ISC-enriched organoids [2]; [6])	SSMD.CTG_Rep (strictly standardized mean difference) (ISC-enriched organoids [2]; [7])	Dose.FC.CTG (ISC-enriched organoids [2]; dose 0.08 uM) [log 2 fold change]	Z.CTG (ISC-enriched organoids [2]; dose 0.08 uM)	Dose.FC.CTG (ISC-enriched organoids [2]; dose 0.40 uM) [log 2 fold change]	Z.CTG (ISC-enriched organoids [2]; dose 0.40 uM)	other results
C[C@H](Oc1cc(-c2cnn(C3CCNCC3)c2)cnc1N)c1c(Cl)ccc(F)c1Cl [(S)-crizotinib]	0.881	0.808	0.084	0.103	−0.343	−0.383	−0.491	−0.720	0.125	0.016	−0.059	−0.111	0.742	0.190	0.285	0.034	0.241	0.575	0.054	0.130	Dose.FC.CTG (ISC-enriched organoids [2]; dose 2.00 uM): 0.111 log 2 fold change; Z.CTG (ISC-enriched organoids [2]; dose 2.00 uM): 0.266; Dose.FC.CTG (ISC-enriched organoids [2]; dose 10.00 uM): 0.019 log 2 fold change; Z.CTG (ISC-enriched organoids [2]; dose 10.00 uM): 0.046; SSMD.LYZ.NS_Rep (strictly standardized mean difference) (ISC-enriched organoids [3]; [4]): 0.838; SSMD.LYZ.NS_Rep (strictly standardized mean difference) (ISC-enriched organoids [3]; [5]): 0.094; SSMD.LYZ.NS_Rep (strictly standardized mean difference) (ISC-enriched organoids [3]; [6]): −0.229; SSMD.LYZ.NS_Rep (strictly standardized mean difference) (ISC-enriched organoids [3]; [7]): −0.438; Dose.FC.LYZ.NS (ISC-enriched organoids [3]; dose 0.08 uM): 0.193 log 2 fold change; Z.LYZ.NS (ISC-enriched organoids [3]; dose 0.08 uM): 1.679; Dose.FC.LYZ.NS (ISC-enriched organoids [3]; dose 0.40 uM): 0.009 log 2 fold change; Z.LYZ.NS (ISC-enriched organoids [3]; dose 0.40 uM): 0.081; Dose.FC.LYZ.NS (ISC-enriched organoids [3]; dose 2.00 uM): −0.034 log 2 fold change; Z.LYZ.NS (ISC-enriched organoids [3]; dose 2.00 uM): −0.294; Dose.FC.LYZ.NS (ISC-enriched organoids [3]; dose 10.00 uM): −0.068 log 2 fold change; Z.LYZ.NS (ISC-enriched organoids [3]; dose 10.00 uM): −0.588
C=C1C(=O)O[C@H]2[C@H]1CC/C(C)=C/CC[C@@]1(C)O[C@@H]21 [(−)-Parthenolide]	0.679	0.799	0.763	1.067	0.506	0.441	0.345	0.530	0.124	0.165	0.068	0.082	0.498	0.736	0.482	0.257	0.135	0.322	0.228	0.544	Dose.FC.CTG (ISC-enriched organoids [2]; dose 2.00 uM): 0.157 log 2 fold change; Z.CTG (ISC-enriched organoids [2]; dose 2.00 uM): 0.376; Dose.FC.CTG (ISC-enriched organoids [2]; dose 10.00 uM): 0.157 log 2 fold change; Z.CTG (ISC-enriched organoids [2]; dose 10.00 uM): 0.374; SSMD.LYZ.NS_Rep (strictly standardized mean difference) (ISC-enriched organoids [3]; [4]): 0.601; SSMD.LYZ.NS_Rep (strictly standardized mean difference) (ISC-enriched organoids [3]; [5]): 0.480; SSMD.LYZ.NS_Rep (strictly standardized mean difference) (ISC-enriched organoids [3]; [6]): 0.920; SSMD.LYZ.NS_Rep (strictly standardized mean difference) (ISC-enriched organoids [3]; [7]): 0.998; Dose.FC.LYZ.NS (ISC-enriched organoids [3]; dose 0.08 uM): 0.058 log 2 fold change; Z.LYZ.NS (ISC-enriched organoids [3]; dose 0.08 uM): 0.506; Dose.FC.LYZ.NS (ISC-enriched organoids [3]; dose 0.40 uM): 0.067 log 2 fold change; Z.LYZ.NS (ISC-enriched organoids [3]; dose 0.40 uM): 0.583; Dose.FC.LYZ.NS (ISC-enriched organoids [3]; dose 2.00 uM): 0.089 log 2 fold change; Z.LYZ.NS (ISC-enriched organoids [3]; dose 2.00 uM): 0.776; Dose.FC.LYZ.NS (ISC-enriched organoids [3]; dose 10.00 uM): 0.133 log 2 fold change; Z.LYZ.NS (ISC-enriched organoids [3]; dose 10.00 uM): 1.159
